Test results taken from paper PMC8668966, “Short-chain aurachin D derivatives are selective inhibitors of E. coli cytochrome bd-I and bd-II oxidases” (Scientific Reports, 2021).
Values after ≈ are worked out from the molar mass of the structure shown. Where two headings read alike, the source gives them in different places.

Legend:
cytochrome bd-I = target: T1, cytochrome bd-I (Escherichia coli, UniProt P0ABJ9); test: Oxygen reductase activity assay (Clark-type electrode) with purified cytochrome bd-I; format: biochemical, E. coli; conditions: for Rest activity in % of control activity bd-I / remaining activity at 250 µM: compound 250 µM, 200 µM ubiquinone-1, 5 mM dithiothreitol, 30 nM enzyme, RT, 100% = DMSO, mean ± S.E.M. (n=3); for remaining activity at 250 µM: read-out: Rest activity in % of control activity bd-I; for Ki: final enzyme concentration 30 nM, inhibitor concentration at 50% residual oxygen reductase activity (EC50 of DoseResp fit), read-out: Ki^app bd-I
T1 construct: made in house; host or cells: E. coli C43 (DE3) Δ bo3 (CLY)
From the text: (§1) To determine inhibition of our test set compounds and to assess the selectivity for bd-type oxidases we tested the inhibitory effect via […] determination of oxygen reduction using purified protein samples and ubiquinol-1 as electron donor. In this set-up, we kept the compound at a high molar excess compared to the protein. Figures 3 and 4 illustrate the screening results for cytochromes bd-I, bd-II and bo3, respectively. A comparative overview of all compounds is given in SI Table S1. […]. […] Among these compounds, AC2-11 has the strongest inhibitory effect on all three oxidases. […]. For AurC and its analogues it was reported that replacement of N–OH with an N–H group decreases the inhibitory potential only for cytochrome bo3, keeping a strong inhibitory effect on cytochrome bd[17]. Correspondingly, we observed a clear inhibition of cytochromes bd-I and bd-II with all AurD-type compounds. Regarding the long-chain derivatives AC4-11, AC2-11 and AD3-11, inhibition of cytochromes bd-I and bd-II and bo3 highlight the importance of the residue at the nitrogen group at position 1 for enzyme selectivity. […]. […] Regarding the cyclic derivatives, 7-MTHA causes only a minor inhibition of cytochrome bd-I. This effect could be due to the methoxy group in position 7 that introduces an additional polarity to the molecule. Steric hindrance as a consequence of the third ring structure is less likely, because AD5-cyclo is bulkier and reduces activity < 10% of cytochromes bd-I and bd-II.
(§2) Oxygen reductase activity was measured as oxygen consumption rate of purified protein by OX-MR Clark-type oxygen electrode linked to a PA 2000 picoammeter and to the ADC-216 AD-converter. Data recording with SensorTrace Basic 2.1 software (all Unisense, Denmark). Measurements were performed at RT in stirred 2 ml—glass vials with a total reaction volume of 600 µl. Oxygen consumption was initiated by adding 30 nM (bd-I, bo3) or 120 nM (bd-II) of the respective enzyme to the equilibrated mixture containing 20 mM NaPi (pH 8.0), 50 mM NaCl, 0.02% DDM, 5 mM Dithiothreitol (DTT) and 200 µM Ubiquinone-1 (2,3-Dimethoxy-5-methyl-6-(3-methyl-2-buten-1-yl)-1,4-benzoquinone). A 10 min equilibration period was implemented prior to enzyme addition. Inhibition experiments were performed with 250 µM of the respective compound from 20 mM stock solution in DMSO before equilibration. Data analysis and visualization via Origin Lab Pro 9.5 (Additive GmbH, Germany) Data analysis included an unpaired, two-sided t-test of two samples to check that given residual activities were sufficiently different between proteins (at significance levels p < 0.05, 0.01 or 0.001). HQNO (2-heptyl-4-quinolinol 1-oxide) was purchased from biomol GmbH, Hamburg. […]. The Ki^app value was adopted as the EC50 from the sigmoidal DoseRespFit. Further information can be found in Supporting Information Figures S2 to S5.
Dose response curves were created to rank the compounds due to their inhibition potency. Inhibitors were titrated in presence of 30nM bd-I. From Clark-type electrode monitored oxygen consumption, resulting oxygen reduction activity with 200µM Q1, reduced with 2mM DTT, was calculated as turnover in e^-/s. Turnover values were normalized, followed by a curve fitting with DoseResp Fit (1) in Origin LabPro9.5 (Additive GmbH, Germany). Data points are mean of minimum three independent measurements ± S.E.M.

cytochrome bo3 [1] = target: T2, cytochrome bo3 (Escherichia coli, UniProt P0ABI8); test: Oxygen reductase activity assay (Clark-type electrode) with purified cytochrome bo3; format: biochemical, E. coli; conditions: for Rest activity in % of control activity bo3 / remaining activity at 250 µM: compound 250 µM, 200 µM ubiquinone-1, 5 mM dithiothreitol, 30 nM enzyme, RT, 100% = DMSO, mean ± S.E.M. (n=3); for remaining activity at 250 µM: read-out: Rest activity in % of control activity bo3; for Ki: final enzyme concentration 30 nM, EC50 of DoseResp fit, read-out: Ki^app bo3
T2 construct: made in house; host or cells: E. coli strain GO195 with pIRHisA
From the text: as §1, §2

cytochrome bd-II = target: T3, cytochrome bd-II (Escherichia coli, UniProt P26459); test: Oxygen reductase activity assay (Clark-type electrode) with purified cytochrome bd-II; format: biochemical, E. coli; conditions: compound 250 µM, 200 µM ubiquinone-1, 5 mM dithiothreitol, 120 nM enzyme, RT, 100% = DMSO, mean ± S.E.M. (n=3); for remaining activity at 250 µM: read-out: Rest activity in % of control activity bd-II
T3 construct: made in house; host or cells: E. coli C43 (DE3) Δ bo3 (CLY)
From the text: as §1, §2

cytochrome bo3 [2] = target: T2, cytochrome bo3; conditions: values in brackets, determined spectrophotometrically; read-out: Ki^app bo3 (previous data) (converted); cited from earlier work
cytochrome bd = target: cytochrome bd; parameters: method as in PMID 9880809; conditions: values in brackets, determined spectrophotometrically; read-out: Ki^app bd-I (previous data) (converted); cited from earlier work
[3] = tested on: cytochrome bc1 complex (complex III) from beef heart mitochondria; parameters: method as in PMID 8206232; conditions: isolated complex III; cited from earlier work
B. subtilis = tested on: B. subtilis; parameters: method as in PMID 3106289; conditions: cited from earlier work
[4] = tested on: human U-2 OS osteosarcoma cells; parameters: method as in PMID 23946854; conditions: upon treatment; cited from earlier work
[5] = tested on: multidrug efflux transporter deficient TolC strain of Escherichia coli; conditions: cited from earlier work

T2 sequence (P0ABJ3 whole entry): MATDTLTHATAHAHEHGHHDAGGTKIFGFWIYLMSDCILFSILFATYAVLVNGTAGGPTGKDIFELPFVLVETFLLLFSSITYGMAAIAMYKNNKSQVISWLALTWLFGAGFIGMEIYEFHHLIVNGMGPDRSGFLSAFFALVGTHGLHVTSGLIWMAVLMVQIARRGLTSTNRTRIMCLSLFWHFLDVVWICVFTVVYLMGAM
T2 sequence (P0ABJ1 25-315, further chain): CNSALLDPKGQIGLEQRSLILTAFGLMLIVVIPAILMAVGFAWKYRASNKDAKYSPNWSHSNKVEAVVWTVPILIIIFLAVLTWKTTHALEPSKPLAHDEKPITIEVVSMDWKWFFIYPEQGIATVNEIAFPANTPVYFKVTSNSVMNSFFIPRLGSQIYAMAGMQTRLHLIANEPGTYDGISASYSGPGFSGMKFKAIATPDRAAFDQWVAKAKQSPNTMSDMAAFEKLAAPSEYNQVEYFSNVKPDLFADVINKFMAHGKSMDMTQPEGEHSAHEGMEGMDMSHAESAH
T2 sequence (P0ABJ6 whole entry, further chain): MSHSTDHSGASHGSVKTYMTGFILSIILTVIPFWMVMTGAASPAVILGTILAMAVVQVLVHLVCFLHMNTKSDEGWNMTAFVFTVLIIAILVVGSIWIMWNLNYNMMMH
T2 sequence (P0ABI8 whole entry): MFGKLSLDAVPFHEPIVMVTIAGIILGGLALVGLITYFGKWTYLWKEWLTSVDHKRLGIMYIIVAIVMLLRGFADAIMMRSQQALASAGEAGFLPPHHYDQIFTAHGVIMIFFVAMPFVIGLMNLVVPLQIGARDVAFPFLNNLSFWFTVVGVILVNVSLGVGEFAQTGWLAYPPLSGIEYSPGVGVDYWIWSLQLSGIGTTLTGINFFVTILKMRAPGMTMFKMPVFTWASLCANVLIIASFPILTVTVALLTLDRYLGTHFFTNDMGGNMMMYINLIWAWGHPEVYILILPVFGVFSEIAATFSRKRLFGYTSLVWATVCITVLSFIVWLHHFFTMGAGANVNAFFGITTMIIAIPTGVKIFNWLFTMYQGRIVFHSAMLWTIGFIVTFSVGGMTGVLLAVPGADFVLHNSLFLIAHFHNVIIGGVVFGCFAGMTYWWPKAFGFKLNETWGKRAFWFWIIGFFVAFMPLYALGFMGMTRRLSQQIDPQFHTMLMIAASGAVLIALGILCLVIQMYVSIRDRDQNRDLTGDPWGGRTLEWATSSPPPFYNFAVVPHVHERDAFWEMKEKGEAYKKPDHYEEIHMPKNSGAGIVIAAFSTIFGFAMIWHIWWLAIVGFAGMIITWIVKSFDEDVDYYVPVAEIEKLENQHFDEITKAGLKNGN
T1 sequence (P0ABJ9 whole entry): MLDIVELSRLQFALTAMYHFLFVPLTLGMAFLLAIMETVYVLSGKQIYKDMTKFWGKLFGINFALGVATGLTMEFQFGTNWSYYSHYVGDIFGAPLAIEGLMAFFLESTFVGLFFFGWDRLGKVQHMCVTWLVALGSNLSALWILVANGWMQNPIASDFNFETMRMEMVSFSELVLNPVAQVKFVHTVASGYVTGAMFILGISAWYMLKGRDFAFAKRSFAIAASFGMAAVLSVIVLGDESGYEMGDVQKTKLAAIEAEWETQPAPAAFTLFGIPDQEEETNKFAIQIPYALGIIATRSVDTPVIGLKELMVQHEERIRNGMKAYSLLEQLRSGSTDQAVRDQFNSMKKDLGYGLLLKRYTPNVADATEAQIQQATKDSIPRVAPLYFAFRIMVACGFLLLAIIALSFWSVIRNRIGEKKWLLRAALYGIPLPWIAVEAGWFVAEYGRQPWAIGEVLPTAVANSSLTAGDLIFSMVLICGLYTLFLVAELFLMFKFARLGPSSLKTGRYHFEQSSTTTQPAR
T1 sequence (P0ABK2 whole entry, further chain): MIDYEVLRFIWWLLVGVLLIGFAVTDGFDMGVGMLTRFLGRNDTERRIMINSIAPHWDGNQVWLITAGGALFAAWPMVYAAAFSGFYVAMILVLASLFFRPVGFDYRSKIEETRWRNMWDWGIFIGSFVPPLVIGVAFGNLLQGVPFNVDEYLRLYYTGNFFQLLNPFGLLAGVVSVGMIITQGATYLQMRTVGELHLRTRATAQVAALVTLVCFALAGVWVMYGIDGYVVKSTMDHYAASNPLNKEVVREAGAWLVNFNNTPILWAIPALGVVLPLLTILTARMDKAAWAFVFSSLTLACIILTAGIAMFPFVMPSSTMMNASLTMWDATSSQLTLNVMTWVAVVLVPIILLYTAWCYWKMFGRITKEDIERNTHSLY
T1 sequence (P56100 whole entry, further chain): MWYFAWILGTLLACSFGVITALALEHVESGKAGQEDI
T3 sequence (P26459 whole entry): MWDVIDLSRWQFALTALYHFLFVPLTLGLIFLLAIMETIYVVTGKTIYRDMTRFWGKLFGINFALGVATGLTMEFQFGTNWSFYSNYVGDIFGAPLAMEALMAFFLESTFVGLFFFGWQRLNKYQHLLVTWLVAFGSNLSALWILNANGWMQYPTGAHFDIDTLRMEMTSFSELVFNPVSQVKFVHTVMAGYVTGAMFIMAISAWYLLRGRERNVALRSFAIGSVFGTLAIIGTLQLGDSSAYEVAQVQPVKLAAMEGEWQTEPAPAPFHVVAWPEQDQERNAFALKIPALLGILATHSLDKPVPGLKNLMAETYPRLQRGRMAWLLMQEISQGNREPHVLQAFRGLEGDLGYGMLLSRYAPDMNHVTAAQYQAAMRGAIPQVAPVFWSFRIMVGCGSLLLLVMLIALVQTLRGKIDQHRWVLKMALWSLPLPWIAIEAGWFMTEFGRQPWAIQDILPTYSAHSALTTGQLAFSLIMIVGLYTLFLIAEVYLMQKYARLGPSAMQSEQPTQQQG
T3 sequence (P24244 whole entry, further chain): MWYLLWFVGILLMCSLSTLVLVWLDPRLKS
T3 sequence (P26458 whole entry, further chain): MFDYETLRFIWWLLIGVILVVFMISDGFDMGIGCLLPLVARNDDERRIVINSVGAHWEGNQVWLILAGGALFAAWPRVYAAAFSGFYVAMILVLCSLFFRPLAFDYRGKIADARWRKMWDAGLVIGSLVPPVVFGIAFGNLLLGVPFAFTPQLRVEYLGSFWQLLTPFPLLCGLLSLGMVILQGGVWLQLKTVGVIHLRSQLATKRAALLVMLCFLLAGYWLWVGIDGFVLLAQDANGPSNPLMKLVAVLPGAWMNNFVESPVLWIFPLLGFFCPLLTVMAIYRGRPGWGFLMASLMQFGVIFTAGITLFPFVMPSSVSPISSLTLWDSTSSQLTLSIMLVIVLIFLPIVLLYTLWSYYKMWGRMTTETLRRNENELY

| Compound | remaining activity at 250 µM (cytochrome bd-I) | remaining activity at 250 µM (cytochrome bo3 [1]) | remaining activity at 250 µM (cytochrome bd-II) | also measured |
| --- | --- | --- | --- | --- |
| 2-(2-Heptyl)-3-methyl-4(1H)-quinolone [AD7-1] |  |  |  | Rest activity in % of control activity bd-I (cytochrome bd-I): 4.90 ± 1.5%; Rest activity in % of control activity bd-I (cytochrome bd-I; listed as AD7-1*): 3.46 ± 0.17%; Rest activity in % of control activity bo3 (cytochrome bo3 [1]): 63.6 ± 1.3%; Rest activity in % of control activity bo3 (cytochrome bo3 [1]; listed as AD7-1*): 47.0 ± 1.9%; Rest activity in % of control activity bd-II (cytochrome bd-II): 1.18 ± 0.12%; Rest activity in % of control activity bd-II (cytochrome bd-II; listed as AD7-1*): 1.71 ± 0.48% |
| CCCCCCCCCCc1c(C)c(=O)c2ccccc2n1O [AC1-10] | 1.39 ± 0.19% | 0.626 ± 0.08% |  | Ki (cytochrome bd-I): 82 ± 11 nM; Ki (cytochrome bo3 [2]): 13 nM; Ki (cytochrome bd): 280 nM |
| CCCCCCCCCCCc1c(CC)c(=O)c2ccccc2n1O [AC2-11] | 1.09 ± 0.09% | 0.445 ± 0.08% | 0.73 ± 0.21% | Ki (cytochrome bd-I): 34 ± 6 nM; Ki (cytochrome bo3 [1]): 31 ± 6 nM; Ki (cytochrome bo3 [2]): 46 nM; Ki (cytochrome bd): 440 nM |
| CCCCCCCCCCCc1c(CCCC)c(=O)c2ccccc2n1O [AC4-11] | 1.19 ± 0.42% | 0.863 ± 0.29% | 2.14 ± 0.35% | Ki (cytochrome bd-I): 106 ± 13 nM; Ki (cytochrome bo3 [2]): 144 nM; Ki (cytochrome bd): 340 nM |
| CCCCCCCCCCCc1cc(=O)c2ccccc2[nH]1 [AD0-11] | > 30% | 23% | 8.4 ± 0.36% | Rest activity in % of control activity bo3 (cytochrome bo3 [1]): 23.3 ± 2.3% |
| CCCCCCCCCCCc1[nH]c2ccccc2c(=O)c1CCC [AD3-11] | 0.453 ± 0.28% | 47.1 ± 7% | 1.45 ± 0.18% | fold higher inhibitory potential compared to AD0-11 (cytochrome bd-I; cytochrome bd-I): 188 fold; ratio Ki^app-bo3 vs. Ki^app-bd-I (cytochrome bd-I; selectivity bd-I over bo3): around 300; inhibition at 250 µM (cytochrome bo3 [1]; at 250 µM, read-out: inhibitory effect on cytochrome bo3): ~50%; Ki (cytochrome bo3 [1]): > 100000 nM |
| CCCCc1c(C)[nH]c2ccccc2c1=O [AD4-1] | 5.8 ± 0.39% | 69.7 ± 4.3% | 1.33 ± 0.26% |  |
| CCCCCc1c(C)[nH]c2ccccc2c1=O [AD5-1] | 4 ± 0.13% | 70.4 ± 1.5% | 1.85 ± 0.18% |  |
| O=c1c2c([nH]c3ccccc13)CCCCC2 [AD5-cyclo] | < 10% | 70.5 ± 2.6% |  | Rest activity in % of control activity bd-I (cytochrome bd-I): 5.67 ± 1.14%; Rest activity in % of control activity bd-II (cytochrome bd-II): 1.51 ± 0.15% |
| CCCCCCc1c(C)[nH]c2ccccc2c1=O [AD6-1] | 3.45 ± 0.19% | 73.2 ± 1.7% | 1.3 ± 0.17% |  |
| CCCCCCCc1c(CC)[nH]c2ccccc2c1=O [AD7-2] | 1.89 ± 1.8% | 33.3 ± 1.4% | 1.4 ± 0.49% | Ki^app fold lower compared to AD4-1 (cytochrome bd-I; cytochrome bd-I): 45 fold |
| CCCCCCCCc1c(C)[nH]c2ccccc2c1=O [AD8-1] | 3.59 ± 0.11% | 94.6 ± 3.6% | 1.36 ± 0.21% | increase of Ki^app value compared to AD7-2 (cytochrome bd-I; cytochrome bd-I): sixfold |
| CCCCCCCCCCCc1cc(=O)c2ccccc2[nH]1 [AD11-0, 2-undecylquinolone] |  |  |  | pIC50 [3]: 6.66 |
| CC(C)=CCC/C(C)=C/CC/C(C)=C/Cc1c(C)n(O)c2ccccc2c1=O [AurC, Aurachin C] |  |  |  | minimum inhibitory concentration (B. subtilis): 0.15 µg/mL (≈ 0.395 µM) |
| CC(C)=CCC/C(C)=C/CC/C(C)=C/Cc1c(C)[nH]c2ccccc2c1=O [AurD, Aurachin D] | 3.93 ± 0.64% | 30% | 1.62 ± 0.19% | mitochondrial membrane potential reduced to [4]: 50–80%; Rest activity in % of control activity bo3 (cytochrome bo3 [1]): 29.9 ± 2.4%; Ki (cytochrome bo3 [1]): > 10000 nM; antibacterial effect [5]: moderate antibacterial effect; minimum inhibitory concentration (B. subtilis): 0.15 µg/mL (≈ 0.413 µM) |
| Cc1cc(O)c2ccccc2n1 [Compound 2-MQ, 2-methyl-4-quinolinol, reference compound] | > 30% | 64.2 ± 2.6% | 17.8 ± 0.55% |  |
| COc1ccc2[nH]c3c(c(=O)c2c1)CCCC3 [Compound 7-MTHA, 7-methoxy-1,3,4,10-tetrahydro-9(2H)-acridinone, reference compound] | 35.7 ± 5.7% | 69.3 ± 1.7% | 9.6 ± 0.16% |  |
| CCCCCCCc1cc(O)c2ccccc2[n+]1[O-] [HQNO, 2-heptyl-4-quinolinol 1-oxide, reference compound] | 7.29 ± 0.45% | 4.53 ± 0.58% | 6.44 ± 1.3% | Ki (cytochrome bd-I): 3600 ± 500 nM; Ki (cytochrome bo3 [1]): 2600 ± 400 nM |
